# From PubChem BioAssay (NCI)
#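 These data come from cells grown in 96-well plates and exposed to compound for 48 hours at five concentrations. GI50 is the concentration that inhibits growth by half. TGI denotes the concentration required for complete inhibition of growth.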
# Legend:
# Test in all cases: NCI-60 cell line screen, 48 h
# ACHN renal = system: ACHN renal
# UACC-257 melanoma = system: UACC-257 melanoma
# OVCAR-5 ovarian = system: OVCAR-5 ovarian
# COLO 205 colon = system: COLO 205 colon
# T-47D breast = system: T-47D breast
# SK-MEL-2 melanoma = system: SK-MEL-2 melanoma
# OVCAR-3 ovarian = system: OVCAR-3 ovarian
# BT-549 breast = system: BT-549 breast
# SR leukemia = system: SR leukemia
# HL-60(TB) leukemia = system: HL-60(TB) leukemia
# NCI-H460 lung = system: NCI-H460 lung
# PC-3 prostate = system: PC-3 prostate
# U251 CNS = system: U251 CNS
# SK-MEL-28 melanoma = system: SK-MEL-28 melanoma
# NCI-H23 lung = system: NCI-H23 lung
# SK-OV-3 ovarian = system: SK-OV-3 ovarian
# 786-0 renal = system: 786-0 renal
# LOX IMVI melanoma = system: LOX IMVI melanoma
# MDA-MB-231 breast = system: MDA-MB-231 breast
# OVCAR-4 ovarian = system: OVCAR-4 ovarian
# HOP-92 NSCLC = system: HOP-92 NSCLC
# SF-539 CNS = system: SF-539 CNS
# RPMI-8226 leukemia = system: RPMI-8226 leukemia
# NCI-H522 lung = system: NCI-H522 lung
# HT29 colon = system: HT29 colon
# UACC-62 melanoma = system: UACC-62 melanoma
# SF-268 CNS = system: SF-268 CNS
# SK-MEL-5 melanoma = system: SK-MEL-5 melanoma
# SW-620 colon = system: SW-620 colon
# RXF 393 renal = system: RXF 393 renal
# TK-10 renal = system: TK-10 renal
# MCF7 breast = system: MCF7 breast
# M14 melanoma = system: M14 melanoma
# HS 578T breast = system: HS 578T breast
# CAKI-1 renal = system: CAKI-1 renal
# UO-31 renal = system: UO-31 renal
# MOLT-4 leukemia = system: MOLT-4 leukemia
# HOP-62 NSCLC = system: HOP-62 NSCLC
# DU-145 prostate = system: DU-145 prostate
# HCT-15 colon = system: HCT-15 colon
# A549 NSCLC = system: A549 NSCLC
# NCI-H226 lung = system: NCI-H226 lung
# MALME-3M melanoma = system: MALME-3M melanoma
# SN12C renal = system: SN12C renal
# A498 renal = system: A498 renal
# EKVX NSCLC = system: EKVX NSCLC
# K-562 leukemia = system: K-562 leukemia
# MDA-MB-435 = system: MDA-MB-435
# SNB-19 CNS = system: SNB-19 CNS
# SF-295 CNS = system: SF-295 CNS
# KM12 colon = system: KM12 colon
# OVCAR-8 ovarian = system: OVCAR-8 ovarian
# SNB-75 CNS = system: SNB-75 CNS
# IGROV1 ovarian = system: IGROV1 ovarian
# CCRF-CEM leukemia = system: CCRF-CEM leukemia
smiles,measurement,setting,value
CCCCc1n(Cc2ccc3ccccc3c2)c2ccccc2[n+]1Cc1ccc2ccccc2c1,GI50,ACHN renal,1.4 µM
same,TGI,ACHN renal,2.82 µM
same,GI50,UACC-257 melanoma,0.925 µM
same,TGI,UACC-257 melanoma,2.23 µM
same,GI50,OVCAR-5 ovarian,0.521 µM
same,TGI,OVCAR-5 ovarian,1.9 µM
CCOC(=O)c1sc(-c2ccc(OS(=O)(=O)C[C@]34CCC(CC3=O)C4(C)C)c(C=O)c2)nc1C,GI50,COLO 205 colon,1.07 µM
same,TGI,COLO 205 colon,2.62 µM
same,GI50,T-47D breast,0.78 µM
same,TGI,T-47D breast,2.46 µM
same,GI50,SK-MEL-2 melanoma,1.13 µM
same,TGI,SK-MEL-2 melanoma,2.69 µM
same,GI50,OVCAR-3 ovarian,0.904 µM
same,TGI,OVCAR-3 ovarian,2.72 µM
same,GI50,BT-549 breast,0.916 µM
same,TGI,BT-549 breast,2.48 µM
same,GI50,SR leukemia,0.66 µM
same,TGI,SR leukemia,3.27 µM
same,GI50,HL-60(TB) leukemia,1.27 µM
same,TGI,HL-60(TB) leukemia,3.29 µM
same,GI50,NCI-H460 lung,1.03 µM
same,TGI,NCI-H460 lung,3.24 µM
same,GI50,PC-3 prostate,1.4 µM
same,TGI,PC-3 prostate,> 50 µM
same,GI50,U251 CNS,0.694 µM
same,TGI,U251 CNS,1.43 µM
same,GI50,SK-MEL-28 melanoma,0.982 µM
same,TGI,SK-MEL-28 melanoma,2.12 µM
same,GI50,NCI-H23 lung,1.04 µM
same,TGI,NCI-H23 lung,2.64 µM
same,GI50,SK-OV-3 ovarian,1.3 µM
same,TGI,SK-OV-3 ovarian,4.09 µM
same,GI50,786-0 renal,1.39 µM
same,TGI,786-0 renal,4.09 µM
same,GI50,LOX IMVI melanoma,1.05 µM
same,TGI,LOX IMVI melanoma,2.34 µM
same,GI50,MDA-MB-231 breast,1.03 µM
same,TGI,MDA-MB-231 breast,2.66 µM
same,GI50,OVCAR-4 ovarian,1.49 µM
same,TGI,OVCAR-4 ovarian,> 50 µM
same,GI50,HOP-92 NSCLC,0.951 µM
same,TGI,HOP-92 NSCLC,3.7 µM
same,GI50,SF-539 CNS,0.908 µM
same,TGI,SF-539 CNS,1.85 µM
same,GI50,RPMI-8226 leukemia,0.822 µM
same,TGI,RPMI-8226 leukemia,3.19 µM
same,GI50,NCI-H522 lung,1.02 µM
same,TGI,NCI-H522 lung,2.89 µM
same,GI50,HT29 colon,1.23 µM
same,TGI,HT29 colon,3.34 µM
same,GI50,UACC-62 melanoma,0.745 µM
same,TGI,UACC-62 melanoma,1.76 µM
same,GI50,SF-268 CNS,0.954 µM
same,TGI,SF-268 CNS,2.47 µM
same,GI50,SK-MEL-5 melanoma,0.877 µM
same,TGI,SK-MEL-5 melanoma,1.59 µM
same,GI50,ACHN renal,1.3 µM
same,TGI,ACHN renal,3.71 µM
same,GI50,SW-620 colon,1.04 µM
same,TGI,SW-620 colon,2.69 µM
same,GI50,RXF 393 renal,0.943 µM
same,TGI,RXF 393 renal,2.75 µM
same,GI50,TK-10 renal,0.721 µM
same,TGI,TK-10 renal,4.48 µM
same,GI50,MCF7 breast,0.858 µM
same,TGI,MCF7 breast,2.47 µM
same,GI50,M14 melanoma,1.09 µM
same,TGI,M14 melanoma,2.45 µM
same,GI50,HS 578T breast,1.32 µM
same,TGI,HS 578T breast,4.23 µM
same,GI50,CAKI-1 renal,0.667 µM
same,TGI,CAKI-1 renal,2.67 µM
same,GI50,UO-31 renal,1.05 µM
same,TGI,UO-31 renal,4.65 µM
same,GI50,MOLT-4 leukemia,0.797 µM
same,TGI,MOLT-4 leukemia,2.22 µM
same,GI50,HOP-62 NSCLC,1.21 µM
same,TGI,HOP-62 NSCLC,3.27 µM
same,GI50,DU-145 prostate,1.55 µM
same,TGI,DU-145 prostate,> 50 µM
same,GI50,HCT-15 colon,0.761 µM
same,TGI,HCT-15 colon,1.69 µM
same,GI50,A549 NSCLC,1.25 µM
same,TGI,A549 NSCLC,> 50 µM
same,GI50,NCI-H226 lung,0.943 µM
same,TGI,NCI-H226 lung,2.72 µM
same,GI50,MALME-3M melanoma,1.08 µM
same,TGI,MALME-3M melanoma,2.65 µM
same,GI50,SN12C renal,1.41 µM
same,TGI,SN12C renal,4.58 µM
same,GI50,A498 renal,0.127 µM
same,TGI,A498 renal,1.17 µM
same,GI50,UACC-257 melanoma,1.26 µM
same,TGI,UACC-257 melanoma,3.66 µM
same,GI50,EKVX NSCLC,1.3 µM
same,TGI,EKVX NSCLC,> 50 µM
same,GI50,K-562 leukemia,0.753 µM
same,TGI,K-562 leukemia,> 13.5 µM
same,GI50,MDA-MB-435,1.06 µM
same,TGI,MDA-MB-435,2.76 µM
same,GI50,OVCAR-5 ovarian,0.97 µM
same,TGI,OVCAR-5 ovarian,2.68 µM
same,GI50,SNB-19 CNS,0.898 µM
same,TGI,SNB-19 CNS,2.15 µM
same,GI50,SF-295 CNS,1.16 µM
same,TGI,SF-295 CNS,2.85 µM
same,GI50,KM12 colon,1.3 µM
same,TGI,KM12 colon,3.54 µM
same,GI50,OVCAR-8 ovarian,1.53 µM
same,TGI,OVCAR-8 ovarian,> 50 µM
same,GI50,SNB-75 CNS,0.781 µM
same,TGI,SNB-75 CNS,2.8 µM
same,GI50,IGROV1 ovarian,1.07 µM
same,TGI,IGROV1 ovarian,2.85 µM
same,GI50,CCRF-CEM leukemia,1.01 µM
same,TGI,CCRF-CEM leukemia,> 50 µM
